{"source": "patent US7910111B2", "about": "“Inhibitors of N-ethylmaleimide sensitive factor” (The Johns Hopkins University, priority 2003, dated 2011)", "key": {"[1]": {"system": "human aortic endothelial cells (HAEC)", "settings": "for effect on thrombin stimulated vWF release: HAEC pre-treated with reagent, thrombin 1 U/ml 1 h; for effect on thrombin induced vWF release, dose response: HAEC pre-treated with increasing amounts, DEA-NONOate 10 min, DETA-NONOate 16 h, SNAP 6 h, NEM 1 h, L-NAME 16 h; for effect of peptide on thrombin induced vWF release: HAEC incubated 20 min with peptide", "experimental": "To explore the effect of NO upon granule exocytosis, thrombin induced exocytosis of Weibel-Palade bodies from human aortic endothelial cells (HAEC) which release von Willebrand's Factor (vWF) was studied. HAEC was pre-treated with an NO donor 2-(N,N-diethylamino)-diazenolate-2-oxide (DEA-NONOate) 10 mM or with DEA as a control, stimulated the cells with thrombin 1 U/ml for 1 h, and the amount of vWF released into the media was then measured. […] HAEC was then pre-treated with increasing amounts of various NO donors, including a rapidly releasing NO donor DEA-NONOate for 10 min, a slowly releasing NO donor DETA-NONOate for 16 h, or a nitrosothiol S-nitroso-penicillamine (SNAP) for 6 h; alternatively, cells were treated with NEM for 1 h.\nThe role of endogenous NO in the regulation of Weibel-Palade body exocytosis was then explored. HAEC was pre-treated with L-NAME for 16 h in order to inhibit endogenous NOS, and then the cells were stimulated with 1 U/ml thrombin for 1 h and vWF release was measured. […] HAEC was next pre-treated with vascular endothelial growth factor (VEGF) in order to activate endogenous NOS3. Cells were incubated with 50 ng/ml VEGF or control for 2 h, and then stimulated with thrombin.\nA peptide inhibitor of NSF that crosses cell membranes was designed. This peptide, designated TAT-NSF222, includes the protein transduction domain of HIV TAT (residues 47-57) previously shown to transduce polypeptides into cells (Becker-Hapak et al., 2001), fused to a fragment of NSF (residues 222-243) previously shown to inhibit NSF (Schweizer et al., 1998). […] HAEC were then incubated for 20 min with TAT-NSF222, or with a control peptide TAT-NSF222scr that consisted of the intact TAT domain followed by the amino acid residues of NSF 222-243 in a scrambled order. HAEC were transduced with TAT-NSF peptides, treated with media or thrombin, and the amount of vWF released into the media was measured by ELISA.\nSince NSF plays a general role in vesicle trafficking, permanent inactivation of NSF would slow vesicular trafficking in general. However, local production of NO at the plasma membrane and reversible nitrosylation of NSF could provide spatial regulation of NSF.\nHuman aortic endothelial cells (HAEC) and EGM-2 media were obtained from Clonetics (Walkersville, Md.). HAEC were pre-treated with NO donors, washed, stimulated with 1 U/mil of thrombin, and the amount of vWF released into the media was measured by an ELISA (American Diagnostica, Greenwich, Conn.). HAEC were permeabilized by incubation with 10 U/well of SLO (Sigma) in PBS pH 7.4 for 15 min at 37° C. (Walev et al., 2001). Some cells were incubated with 20-200 μg/ml of antibodies or with 100 μg/ml of recombinant NSF. Cells were then resealed by incubation with EGM-2 media for 4 h at 37° C., washed with EGM-2 media, and stimulated with thrombin as above.\nThe ability of TAT-NSF to affect exocytosis from cells was investigated. Endothelial cells release vWF by exocytosis when stimulated by thrombin. Accordingly, endothelial cells were incubated with increasing amounts of TAT-NSF peptides for 20 min, then treated with 1 U/ml thrombin, and the amount of vWF released into the media was measured by ELISA.\nHuman aortic endothelial cells (HAEC) and EGM-2 media were obtained from Clonetics (Walkersville, Md.). HAEC were pre-treated with TAT-NSF peptides for 20 min, washed, stimulated with 1 U/ml of thrombin, and the amount of vWF released into the media was measured by an ELISA (American Diagnostica, Greenwich, Conn.)."}, "[2]": {"system": "mice", "assay": "platelet adherence to mesenteric venules in mice (intravital microscopy)", "format": "in vivo", "experimental": "To further examine the physiological relevance of NO regulation of Weibel-Palade body exocytosis, the effect of endogenous NO upon platelet interactions with endothelial cells in vivo was measured. Platelet rolling, or transient adherence of platelets to the walls of blood vessels, is mediated by vWF released by exocytosis (Andre et al., 2000). Inhibition of endogenous NO synthesis might permit an increase in Weibel-Palade body exocytosis, an increase in released vWF, and an increase in platelet adherence to venule walls. […] Intravital microscopy was next employed to explore the effects of endogenous NO upon platelet rolling in vivo. Anesthetized mice were pre-treated or not with L-NAME, and then transfused with calcein-AM labeled platelets. The mesentery was externalized, superfused with histamine, and intravital microscopy was used to record interactions of fluorescently labeled platelets with mesenteric venules. Platelets were classified as adherent if they were transiently captured by the endothelium and then translocated in a stop-and-go fashion for a minimum of 2 seconds. […]\nMeasurements of platelet adherence in mice was adapted from Andre et al. (Andre et al., 2000). […] Platelet adherence was expressed as the number of adhering fluorescent cells per square millimeter of venular surface, calculated from the diameter and length of segment viewed."}, "[3]": {"system": "mice", "assay": "bleeding time in mice after tail amputation (Example 1)", "format": "in vivo", "settings": "intravenous; for effect on bleeding time: tail amputated after 45 min", "experimental": "To explore the physiological relevance of NSF regulation of Weibel-Palade body exocytosis, the effect of the NSF inhibitory peptide upon the bleeding time in mice was measured. Anesthetized mice were injected intravenously with saline, TAT-NSF222, or the control peptide TAT-NSF222scr; and after 45 min the distal 5 mm of tail was amputated and the bleeding time measured. […] In fact, 3 of the 6 mice treated with the TAT-NSF222 peptide had bleeding times in excess of 20 min.\nMeasurement of bleeding time in mice was performed as previously described (Weiss et al., 2002). Mice were anesthetized with an intramuscular injection of ketamine and xylazine, and 5 mm of the distal tip of the tail was amputated. The tail was blotted with filter paper every 5 sec until the paper was no longer stained. If the animals bled for 20 min, the experiment was stopped, and the bleeding time was recorded as 20 min."}, "[4]": {"target": "T1, recombinant NSF (Cricetulus griseus, UniProt P18708)", "T1 construct": "RGS-(His)6 (N); made in house; host or cells: bacteria", "T1 sequence (P18708 whole entry)": "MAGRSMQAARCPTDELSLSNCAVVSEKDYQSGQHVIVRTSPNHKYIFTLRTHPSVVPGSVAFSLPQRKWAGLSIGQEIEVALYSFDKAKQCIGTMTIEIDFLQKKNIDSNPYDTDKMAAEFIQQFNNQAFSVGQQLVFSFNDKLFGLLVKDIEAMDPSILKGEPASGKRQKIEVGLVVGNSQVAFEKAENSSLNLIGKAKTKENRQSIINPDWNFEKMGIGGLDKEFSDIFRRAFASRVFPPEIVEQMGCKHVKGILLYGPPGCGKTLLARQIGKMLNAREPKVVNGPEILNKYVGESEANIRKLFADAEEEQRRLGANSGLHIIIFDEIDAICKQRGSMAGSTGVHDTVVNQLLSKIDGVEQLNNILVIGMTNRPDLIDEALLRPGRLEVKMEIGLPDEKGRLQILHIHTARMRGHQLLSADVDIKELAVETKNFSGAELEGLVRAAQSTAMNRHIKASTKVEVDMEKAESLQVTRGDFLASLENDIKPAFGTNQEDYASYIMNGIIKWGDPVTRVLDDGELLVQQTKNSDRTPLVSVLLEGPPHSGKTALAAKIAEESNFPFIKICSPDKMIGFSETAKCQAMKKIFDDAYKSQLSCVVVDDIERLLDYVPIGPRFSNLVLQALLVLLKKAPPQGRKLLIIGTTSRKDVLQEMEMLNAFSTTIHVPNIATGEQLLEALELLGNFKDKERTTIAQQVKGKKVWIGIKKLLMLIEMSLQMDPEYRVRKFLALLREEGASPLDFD", "assay": "NSF ATPase assay (coupled colorimetric assay)", "format": "biochemical", "experimental": "The effect of NO upon NSF activity was next explored, since NO inhibits Weibel-Palade body exocytosis, and since NSF regulates Weibel-Palade body exocytosis. The effect of NO upon the ATPase activity of NSF was first examined. DEA-NONOate was added to recombinant NSF, and the ATPase activity of NSF was measured.\n(§1) The ATPase activity of NSF was measured by a coupled assay, in which ATP utilization is linked to the pyruvate kinase reaction, which generates pyruvate, which in turn is measured continuously with lactate dehydrogenase (Huang and Hackney, 1994). Recombinant NSF (0.2 μg/μl) was pre-treated with buffer or DEA or DEA-NONOate or NEM for 10 min at 22° C. ATPase reaction buffer (100 mM HEPES buffer, pH 7.0, 100 mM KCl, 10 mM MgCl2, 5 mM CaCl2, 10 mM ATP, 5 mM phosphoenol pyruvate, 50 U lactate dehydrogenase, and 50 U pyruvate kinase) was added to the mixture, followed by 10 μl of NADH (2 mg/ml in 1% sodium bicarbonate). The mixture was incubated for 10 min at 22° C., and the absorbance was measured at 340 nm.\nThe effect of the TAT-NSF peptide inhibitors upon the ability of NSF to hydrolyze ATP was measured. 10 μM TAT-NSF peptides was added to recombinant NSF, and the hydrolysis of ATP was measured. All 5 TAT-NSF peptides inhibited NSF ATPase activity (FIG. 8A). […] The effects of TAT-NSF81 (SEQ ID NO: 6) upon NSF were further defined. TAT-NSF81 (SEQ ID NO: 6) inhibits NSF ATPase activity in a dose-dependent manner with an IC50% between 1-10 μM (FIG. 8B).\nas §1, with “TAT-NSF peptides” for “DEA or DEA-NONOate or NEM”"}, "[5]": {"target": "T2, NSF disassembly of the SNARE complex (Cricetulus griseus, UniProt P18708)", "T2 construct": "made in house; host or cells: bacteria (NSF, alpha-SNAP); BL21 cells (GST-SNAREs)", "T2 sequence (P18708 whole entry)": "as above", "T2 sequence (P81125 whole entry partner)": "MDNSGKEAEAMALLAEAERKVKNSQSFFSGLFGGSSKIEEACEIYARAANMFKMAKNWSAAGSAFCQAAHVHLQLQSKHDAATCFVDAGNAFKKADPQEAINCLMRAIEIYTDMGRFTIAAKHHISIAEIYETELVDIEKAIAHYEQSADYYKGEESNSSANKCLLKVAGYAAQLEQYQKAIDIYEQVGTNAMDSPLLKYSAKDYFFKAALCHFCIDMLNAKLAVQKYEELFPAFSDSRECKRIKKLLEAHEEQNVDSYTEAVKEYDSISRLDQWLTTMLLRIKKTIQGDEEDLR", "T2 sequence (Q12846 whole entry partner)": "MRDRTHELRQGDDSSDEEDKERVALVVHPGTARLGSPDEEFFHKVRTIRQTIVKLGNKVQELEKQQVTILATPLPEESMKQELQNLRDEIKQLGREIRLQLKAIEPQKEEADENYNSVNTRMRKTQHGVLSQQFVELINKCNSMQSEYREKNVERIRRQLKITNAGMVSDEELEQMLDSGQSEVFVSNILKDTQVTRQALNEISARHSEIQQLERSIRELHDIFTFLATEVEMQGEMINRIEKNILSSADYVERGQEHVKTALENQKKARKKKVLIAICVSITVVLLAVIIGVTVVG", "T2 sequence (Q15836 whole entry partner)": "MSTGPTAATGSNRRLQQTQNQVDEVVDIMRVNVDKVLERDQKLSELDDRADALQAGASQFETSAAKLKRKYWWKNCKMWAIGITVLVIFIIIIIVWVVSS", "T2 sequence (O00161 whole entry partner)": "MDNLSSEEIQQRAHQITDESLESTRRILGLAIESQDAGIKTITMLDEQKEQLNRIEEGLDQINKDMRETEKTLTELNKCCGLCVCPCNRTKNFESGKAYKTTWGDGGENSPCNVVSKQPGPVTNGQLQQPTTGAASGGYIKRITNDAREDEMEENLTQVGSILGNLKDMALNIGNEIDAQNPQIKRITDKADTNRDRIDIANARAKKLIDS", "format": "biochemical", "settings": "recombinant NSF, α-SNAP, GST-SNAREs, ATP; TAT-NSF peptides 1 μM in Example 2", "description": "Accordingly, recombinant NSF was pre-treated with the NO donor DEA-NONOate 1 mM for 10 min. Pre-treated NSF, α-SNAP, and detergent extracts of HAEC membranes were then mixed in the presence of 0.5 mM ATP or ATP-γS. These reactions were then fractionated by sucrose density gradient ultracentrifugation, fractions were collected from the bottom of the tube, and immunoblotted with antibody to syntaxin-4.\nThe effect of NO upon NSF disassembly of purified, recombinant SNARE molecules was next examined. Recombinant (His)6-NSF was pre-treated or not with 1 mM DEA-NONOate for 10 min, and then mixed with and (His)6-a-SNAP and recombinant SNARE fusion polypeptides identified in endothelial cells: GST-syntaxin-4, VAMP-3, and SNAP-23. ATP or ATP-γS was added, the mixture was precipitated with glutathione-sepharose beads, and precipitated proteins were fractionated by SDS-PAGE and immunoblotted with antibody to the NSF tag.\nThe disassembly activity of NSF was measured by a co-precipitation assay (Pevsner et al., 1994). […] This mixture of NSF and SNARE polypeptides was then incubated in binding buffer (4 mM HEPES pH 7.4, 0.1M NaCl, 1 mM EDTA, 3.5 mM CaCl2, 3.5 mM MgCl2, and 0.5% Nonidet P-40) and glutathione-sepharose beads for 1 h at 4° C. with rotation. The beads were washed with binding buffer 4 times, mixed with SDS-PAGE sample buffer, boiled for 3 min, and analyzed by immunoblotting.\nThe effect of the TAT-NSF peptide inhibitors upon the ability of NSF to separate from SNARE complexes was measured. Recombinant NSF was pre-treated with 1 μM TAT-NSF peptides, and recombinant GST-SNARE polypeptides were then added, including syntaxin-4, SNAP-23, and VAMP-3. […]\nThe effect of TAT-NSF peptides on NSF disassembly activity was determined. […]\nTAT-NSF81 (SEQ ID NO: 6) inhibition of NSF disassembly activity was also investigated. […] ATP was added, GST-SNAREs were precipitated with glutathione-sepharose, and the precipitant was analyzed for the co-precipitation of NSF.\nThe disassembly activity of NSF was measured by a co-precipitation assay (Pevsner et al., 1994). […]"}, "[6]": {"system": "mice", "assay": "myocardial infarction (coronary ligation/reperfusion) in mice", "format": "in vivo", "experimental": "The ability of the fusion peptides of the present invention to impact cardiac infraction was investigated. Mice were pre-treated intravenously with vehicle or 5 ug/mouse TAT-NSF700 (SEQ ID NO: 8) peptide 15 min prior to infarction. Myocardial infarctions were created in mice by ligation of the left anterior descending coronary artery. Myocardial ischemia was maintained for 35 minutes, and then the ligation of the coronary artery was released, and reperfusion continued for 24 h.\nThe mice were then sacrificed and the size of the myocardial infarction was quantitated as previously done (Jones S P, Greer J J, Kakkar A K, Ware P D, Turnage R H, Hicks M, van Haperen R, de Crom R, Kawashima S, Yokoyama M, Lefer D J. Am J Physiol Heart Circ Physiol. 2004 January; 286(1):H276-82. Epub 2003 Sep. 11.). The area at risk (AAR) was measured with Evans blue dye, the left ventricle (LV) area was measured by planimetery, and the infarct area (INF) was measured with TTC staining. There were 7 mice per group."}}, "note": "No end group written: not given here.", "data": [{"compound": "CC(=N)NCc1cccc(CN)c1", "note": "[1400W]", "values": [{"measurement": "effect on thrombin stimulated vWF release", "setting": "[1]", "result": "had no effect"}]}, {"compound": "NCCN(CCN)/[N+]([O-])=N/O", "note": "[DETA-NONOate, dithylenetriamine (DETA)-NONOate]", "values": [{"measurement": "effect on thrombin induced vWF release, dose response", "setting": "[1]", "result": "inhibits thrombin induced vWF release"}]}, {"compound": "COC(=O)[C@@H](N)CCCNC(=N)N[N+](=O)[O-]", "note": "[L-NAME, L-nitroarginine-methyl-ester]", "values": [{"measurement": "effect on thrombin induced vWF release, dose response", "setting": "[1]", "result": "increases thrombin stimulated vWF release in a dose-dependent manner"}, {"measurement": "effect on thrombin stimulated vWF release", "setting": "[1]", "result": "increases the amount of vWF released"}, {"measurement": "effect on VEGF inhibition of thrombin stimulated vWF release", "setting": "[1]; L-NAME 1 mM, VEGF 50 ng/ml 2 h", "result": "blocks the effects of VEGF treatment"}, {"measurement": "histamine induced platelet interactions with the venule wall, frequency vs non-treated mice", "setting": "[2]; 5 mg/kg L-NAME intravenously, histamine superfusion", "result": "more than double"}, {"measurement": "time of peak platelet-venule interactions after histamine treatment", "setting": "[2]; L-NAME pre-treated", "result": 6, "unit": "min"}]}, {"compound": "CCN1C(=O)C=CC1=O", "note": "[NEM]", "values": [{"measurement": "effect on thrombin induced vWF release, dose response", "setting": "[1]", "result": "inhibits thrombin induced vWF release"}]}, {"compound": "YGRKKRRQRRR-GGG-ENSFRFLADIFPAKAFPVRFE (YGRKKRRQRRRGGGENSFRFLADIFPAKAFPVRFE; fusion peptide) [TAT-NSF222scr]", "values": [{"measurement": "effect on bleeding time", "setting": "[3]", "result": "has no effect upon bleeding time"}]}, {"compound": "YGRKKRRQRRR-GGG-GLDKEFNSIFRRAFASRVFPPE (YGRKKRRQRRRGGGGLDKEFNSIFRRAFASRVFPPE; fusion peptide) [TAT-NSF222]", "values": [{"measurement": "effect of peptide on thrombin induced vWF release", "setting": "[1]", "result": "inhibits vWF release in a dose-dependent manner"}, {"measurement": "effect on NSF ATPase activity", "setting": "[4]; recombinant NSF", "result": "inhibits both NSF ATPase activity"}, {"measurement": "effect on NSF disassembly activity", "setting": "[5]", "result": "also NSF disassembly activity"}, {"measurement": "mice with bleeding times in excess of 20 min", "setting": "[3]; 45 min", "result": "3 of the 6"}, {"measurement": "effect on bleeding time", "setting": "[3]", "result": "dramatically prolongs the bleeding time"}]}, {"compound": "YGRKKRRQRRR-GGG-LLDYVPIGPRFSNLVLQALLVL (YGRKKRRQRRRGGGLLDYVPIGPRFSNLVLQALLVL; fusion peptide) [TAT-NSF700]", "values": [{"measurement": "effect of peptide on thrombin induced vWF release", "setting": "[1]", "result": "most effective at inhibiting release of vWF"}, {"measurement": "effect on NSF ATPase activity at 10 μM peptide", "setting": "[4]; 10 μM TAT-NSF peptides, recombinant NSF", "result": "more effective than the other peptides"}, {"measurement": "size of the infarct", "setting": "[6]; mice, 5 ug/mouse i.v. 15 min prior to infarction, 35 min ischemia, 24 h reperfusion", "result": 44, "unit": "%+/−3"}, {"measurement": "absolute reduction in infarct size", "setting": "[6]; vs vehicle treated mice", "result": 12, "unit": "%"}, {"measurement": "relative reduction in infarct size", "setting": "[6]; vs vehicle treated mice", "result": 21, "unit": "%"}]}, {"compound": "YGRKKRRQRRRGGGALYSFDKAKQCIGTMTIEID [TAT-NSF81]", "values": [{"measurement": "IC50", "setting": "[1]; read-out: IC50% for inhibition of endothelial exocytosis (vWF release), HAEC, 20 min pre-treatment, thrombin 1 U/ml", "result": "1 to 10", "unit": "µM"}, {"measurement": "IC50", "setting": "[4]", "result": "1 to 10", "unit": "µM"}]}, {"compound": "vascular endothelial growth factor [VEGF]", "values": [{"measurement": "effect on thrombin stimulated vWF release", "setting": "[1]", "result": "decreases thrombin stimulated vWF release"}]}]}
